Measured values as given in US7244727B2, “Fused bicyclic nitrogen-containing heterocycles” (Japan Tobacco Inc., priority 2002, dated 2007).
pIC50: −log10 of the molar value.

Experiments:
human DGAT1 = target: T1, human DGAT1 (Homo sapiens, UniProt O75907); experiment: DGAT Scintillation Proximity Assay (SPA) with membranes of insect cells expressing human flagtag DGAT1; format: biochemical; details: read-out: hDGAT1 IC50
T1 construct: made in house; host or cells: insect cells (sf9, sf21 or High Five) infected with baculovirus; total cell membranes
T1 sequence (O75907 1-488): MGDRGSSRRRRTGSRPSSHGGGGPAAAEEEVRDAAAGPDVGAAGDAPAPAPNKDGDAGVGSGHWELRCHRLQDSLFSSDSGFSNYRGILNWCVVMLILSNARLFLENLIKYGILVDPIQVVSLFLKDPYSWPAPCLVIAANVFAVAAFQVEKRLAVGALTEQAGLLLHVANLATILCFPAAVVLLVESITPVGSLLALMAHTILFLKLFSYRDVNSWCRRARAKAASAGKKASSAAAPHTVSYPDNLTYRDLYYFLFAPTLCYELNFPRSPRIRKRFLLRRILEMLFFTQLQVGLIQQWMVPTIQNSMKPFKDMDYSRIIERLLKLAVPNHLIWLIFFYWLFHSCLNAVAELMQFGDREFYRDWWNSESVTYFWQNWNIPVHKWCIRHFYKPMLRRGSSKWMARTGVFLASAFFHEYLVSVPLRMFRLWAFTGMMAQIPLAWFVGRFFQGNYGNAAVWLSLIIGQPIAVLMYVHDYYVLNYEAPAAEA
Experimental: In such an assay human DGAT1 is cloned from a human liver cDNA library. PCR is used to add a restriction site and flag epitope at the most 5′ end and a restriction site at the 3′ end of the sequence. Thereafter, human flagtag (FT) DGAT1 baculovirus may be generated using a Bac-to-Bac Baculovirus Expression System® (Invitrogen). Insect cells (e.g., sf9, sf2 1, or High Five) are infected for 24 to 72 h and collected by centrifugation. Cell pellets are resuspended in homogenization buffer and lysed using a homogenization device, such as a Microfluidizer. Total cell membranes are collected by ultracentrifugation at 45,000 rpm for 1 h.
A small aliquot (0.2 μg/well) of membrane is incubated with 10 μM compound or mercuric chloride (as positive control for inhibition) in the presence of enzyme substrate, dioleoyl glycerol (200 μM) in 384 well plates, final volume 50 gL per well. […] The reaction is stopped by adding Wheat Germ Agglutinin (WGA) SPA beads (0.2 mg) in mercuric chloride. Cell membranes are allowed to couple to the beads overnight. The signal can be measured using, for example, a Chemiluminescence Image Plate Reader (CLIPR) or TopCount device.

Compound | melting point | pIC50 (human DGAT1)
Nc1ncnc2c1N=C(c1ccc(Br)cc1)CO2 | > 200 °C | –
CC1Oc2ncnc(N)c2N=C1c1ccc(Br)cc1 (centres unmarked) | 222 to 224 °C | –
Cc1nc(N)c2c(n1)OCC(c1ccc(Br)cc1)=N2 | > 220 °C | –
Nc1ncnc2c1NC(c1ccc(Br)cc1)CO2 (centres unmarked) | > 200 °C | –
CC1(C)Oc2ncnc(N)c2N=C1c1ccc(Br)cc1 | 201 to 203 °C | –
Cc1nc(N)c2c(n1)OC(C)(C)C(c1ccc([C@H]3CC[C@H](CC(=O)O)CC3)cc1)=N2 | > 250 °C | –
CC1(C)Oc2ncnc(N)c2NC1c1ccc(Br)cc1 (centres unmarked) | > 220 °C | –
CC1(C)Oc2ncnc(N)c2N=C1c1ccc(Cl)cc1 | 210 to 211 °C | –
Cc1ccc(C2=Nc3c(N)ncnc3OC2(C)C)cc1 | 161 to 162 °C | –
CC1(C)Oc2ncnc(N)c2N=C1c1ccc(F)cc1 | 189 to 190 °C | –
CC1(C)Oc2ncnc(N)c2N=C1c1ccc(C2CCCCC2)cc1 | 186 to 187 °C | –
CC1(C)Oc2ncnc(N)c2N=C1c1ccc([C@H]2CC[C@H](CC(N)=O)CC2)cc1 | 224 to 226 °C | –
CC1(C)Oc2ncnc(N)c2N=C1c1ccc([C@H]2CC[C@H](C(=O)O)CC2)cc1 | > 250 °C | –
CC1(C)Oc2ncnc(N)c2N=C1c1ccc([C@H]2CC[C@H](CS(N)(=O)=O)CC2)cc1 | > 250 °C | –
COc1ccc(C2=Nc3c(N)ncnc3OC2(C)C)cc1 | 183 to 184 °C | –
CC1(C)Oc2ncnc(N)c2N=C1c1ccc(O)cc1 | 245 to 246 °C | –
CC1(C)Oc2ncnc(N)c2N=C1c1ccc(-c2ccccc2)cc1 | 218 to 219 °C | –
CC1(C)Oc2ncnc(N)c2N=C1c1ccc(C2CCC(=O)CC2)cc1 | > 240 °C | –
CCCc1ccc(C2=Nc3c(N)ncnc3OC2(C)C)cc1 | 185 to 186 °C | –
CC1(C)Oc2ncnc(N)c2N=C1c1ccc(C(C)(C)C)cc1 | 220 °C | –
CCc1ccc(C2=Nc3c(N)ncnc3OC2(C)C)cc1 | 135 to 136 °C | –
CC(C)c1ccc(C2=Nc3c(N)ncnc3OC2(C)C)cc1 | 175 to 179 °C | –
CCCCc1ccc(C2=Nc3c(N)ncnc3OC2(C)C)cc1 | 157 to 160 °C | –
CC1(C)Oc2ncnc(N)c2N=C1c1ccc([C@H]2CC[C@H](CCC(=O)O)CC2)cc1 | > 250 °C | –

Compound | melting point | pIC50 (human DGAT1)
CC1(C)Oc2ncnc(N)c2N=C1c1ccc(C2CCC(F)(F)CC2)cc1 | 226 to 227 °C | –
CC1(C)Oc2ncnc(N)c2N=C1c1ccc(C2CCC(O)CC2)cc1 (centres unmarked) | 246 to 248 °C | –
CC1(C)Oc2ncnc(N)c2N=C1c1ccc(-c2ccc(CC(=O)O)cc2)cc1 | > 270 °C | –
CC1(C)Oc2ncnc(N)c2N=C1c1ccc(C(C)(C)C(=O)O)cc1 | > 250 °C | –
CC1(C)Oc2ncnc(N)c2N=C1c1ccc([C@H]2CC[C@H](Cc3nn[nH]n3)CC2)cc1 | > 250 °C | –
CC1(C)Oc2ncnc(N)c2N=C1c1ccccc1 | 189 to 190 °C | –
CC1(C)Oc2ncnc(N)c2N=C1c1ccc(N2CCCCC2)cc1 | 191 to 193 °C | –
CC1(C)Oc2ncnc(N)c2N=C1c1ccc(N2CCOCC2)cc1 | 214 to 219 °C | –
Nc1ncnc2c1N=C(c1ccc(F)cc1)CO2 [Example 1-2] | > 220 °C | < 7.00
Nc1ncnc2c1N=C(c1ccc(Cl)cc1)CO2 [Example 1-3] | > 220 °C | < 7.00
Cc1ccc(C2=Nc3c(N)ncnc3OC2)cc1 [Example 1-4] | 217 to 219 °C | < 7.00
CCN(CC)c1ccc(C2=Nc3c(N)ncnc3OC2)cc1 [Example 1-6] | 206 °C (dec.) | < 7.00
Nc1ncnc2c1N=C(c1cccc(Br)c1)CO2 [Example 1-7] | > 220 °C | < 7.00
Nc1ncnc2c1N=C(c1ccc(C(F)(F)F)cc1)CO2 [Example 1-8] | > 220 °C | < 7.00
CC(C)c1ccc(C2=Nc3c(N)ncnc3OC2)cc1 [Example 1-9] | 176 to 178 °C | < 7.00
Nc1ncnc2c1N=C(c1ccc(-c3ccccc3)cc1)CO2 [Example 1-11] | > 250 °C | < 7.00
COc1ccc(C2=Nc3c(N)ncnc3OC2)cc1 [Example 1-12] | 191 to 193 °C | < 7.00
Nc1ncnc2c1N=C(c1ccc([N+](=O)[O-])cc1)CO2 [Example 1-13] | > 250 °C | < 7.00
Nc1cccc2c1N=C(c1ccc(Br)cc1)CO2 [Example 1-15] | 75 to 77 °C | < 7.00
Nc1ncnc2c1N=C(c1ccccn1)CO2 [Example 1-16] | 215 °C | < 7.00
Nc1ncnc2c1N=C(c1cccnc1)CO2 [Example 1-17] | > 220 °C | < 7.00
Nc1ncnc2c1N=C(c1ccncc1)CO2 [Example 1-18] | > 220 °C | < 7.00
CCc1ccc(C2=Nc3c(N)ncnc3OC2)cc1 [Example 1-19] | 191 to 193 °C | < 7.00
CCCc1ccc(C2=Nc3c(N)ncnc3OC2)cc1 [Example 1-20] | 189 to 192 °C | < 7.00

Compound | melting point | pIC50 (human DGAT1)
CCCCc1ccc(C2=Nc3c(N)ncnc3OC2)cc1 [Example 1-21] | 183 to 186 °C | < 7.00
Nc1ncnc2c1N=C(C1CCCCC1)CO2 [Example 1-22] | 142 °C | < 7.00
Nc1ncnc2c1N=C(c1ccc(OC(F)(F)F)cc1)CO2 [Example 1-23] | 209 to 212 °C | < 7.00
Nc1ncnc2c1N=C(c1ccc(C3CCCCC3)cc1)CO2 [Example 1-25] | 219 to 221 °C | < 7.00
Nc1nc(N)c2c(n1)OCC(c1ccc(Br)cc1)=N2 [Example 1-26] | > 220 °C | < 7.00
Nc1ncnc2c1N=C(c1ccc(Cl)c(Cl)c1)CO2 [Example 1-27] | > 220 °C | < 7.00
Nc1ncnc2c1N=C(c1ccc(Cl)cc1Cl)CO2 [Example 1-28] | 218 to 220 °C | < 7.00
Nc1nc(O)nc2c1N=C(c1ccc(Br)cc1)CO2 [Example 1-29] | > 220 °C | < 7.00
CN(C)c1nc(N)c2c(n1)OCC(c1ccc(Br)cc1)=N2 [Example 1-30] | > 220 °C | < 7.00
Nc1ncnc2c1N=C(c1c(F)c(F)c(F)c(F)c1F)CO2 [Example 1-31] | 190 to 192 °C | < 7.00
Cc1nc(N)c2c(n1)OCC(c1ccc(Br)cc1)N2 (centres unmarked) [Example 1-34] | 232 to 233 °C | < 7.00
Cc1nc(N)c2c(n1)OC(C)(C)C(c1ccc([C@H]3CC[C@H](CN4CCCC(O)C4=O)CC3)cc1)=N2 (some centres unmarked) [Example 2-170] | 228 to 229 °C | –
Cc1nc(N)c2c(n1)OC(C)(C)C(c1ccc([C@H]3CC[C@H](CCc4noc(C(F)(F)F)n4)CC3)cc1)=N2 [Example 2-199] | 198 to 200 °C | –
Cc1nc(N)c2c(n1)OC(C)(C)C(c1ccc([C@H]3CC[C@H](Cc4n[nH]c(=O)[nH]4)CC3)c(Cl)c1)=N2 [Example 6-5] | > 300 °C | –
Cc1nc(N)c2c(n1)OC(C)(C)C(c1ccc([C@H]3CC[C@H](Cc4noc(=O)[nH]4)CC3)c(Cl)c1)=N2 [Example 6-6] | > 282 °C | –
Cc1nc(N)c2c(n1)OC(C)(C)C(c1ccc([C@H]3CC[C@H](CC(=O)O)CC3)c(O)c1)=N2 [Example 6-7] | > 280 °C | –
CC1(C)Oc2nc(C(F)(F)F)nc(N)c2N=C1c1ccc2c(c1)CCC21CCC(C(C)(C)C(=O)O)CC1 (centres unmarked) [Example 10-26] | – | 7.00 to 8.00
CCC(C(=O)O)C1CCC(c2ccc(C3=Nc4c(N)nc(C)nc4OC3(C)C)cc2)CC1 (centres unmarked) [Example 10-27] | – | 7.00 to 8.00
CCC(C(=O)O)C1CCC(c2ccc(C3=Nc4c(N)nc(C(F)(F)F)nc4OC3(C)C)cc2)CC1 (centres unmarked) [Example 10-28] | – | > 8.00
Cc1nc(N)c2c(n1)OC(C)(C)C(c1ccc(CC3CCC(C(=O)O)CC3)cc1)=N2 (centres unmarked) [Example 10-29] | – | 7.00 to 8.00
Cc1nc(N)c2c(n1)OC(C)(C)C(c1ccc([C@H]3CC[C@H](C(C)C(=O)O)CC3)cc1)=C2 (some centres unmarked) [Example 10-30] | – | 7.00 to 8.00
CC(C(=O)O)[C@H]1CC[C@H](c2ccc(C3=Cc4c(N)ncnc4OC3(C)C)cc2)CC1 (some centres unmarked) [Example 10-31] | – | 7.00 to 8.00
CCC(C(=O)O)C1CCC(c2ccc(C3=Nc4c(N)ncnc4OC3(C)C)cc2)CC1 (centres unmarked) [Example 10] | – | > 8.00
